In assay [1] the test system is brain lesion (infarcted area) after middle cerebral artery occlusion. Briefly: TTC staining, brain lesion volume after transient middle cerebral artery occlusion. It counts as in vivo, rat. As to conditions: OVX female rats, 4 weeks diet (E2 1 week), 1 hour MCA occlusion, 24 hours reperfusion.
Protocol: Young adult (2 to 3 months old) female Charles River rats were ovariectomized (OVX) and fed one of 5 compositions for 4 weeks or treated with estradiol (E2) as a positive control for one week. The animal groups and respective compositions were: At the end of the 4 weeks of feeding (or 1 week of E2 treatment), the animals were subjected to a transient (1 hour) middle cerebral artery occlusion followed by reperfusion for 24 hours to mimic one of the main causes of neuron loss. […] Photographs were taken with a digital camera. The digital images of each brain section were used to calculate lesion volume for the infracted area of the brain.
Assay [2] concerns TUNEL-positive cells in the ischemic boundary cortex. Briefly: TUNEL staining and cell death quantification after transient middle cerebral artery occlusion. It counts as in vivo, rat. The settings on record: OVX female rats, 4 weeks diet (E2 1 week), 1 hour MCA occlusion, 24 hours reperfusion. As for the experimental part:
Young adult (2 to 3 months old) female Charles River rats were ovariectomized (OVX) and fed one of 5 compositions for 4 weeks or treated with estradiol (E2) as a positive control for one week. The animal groups and respective compositions were: At the end of the 4 weeks of feeding (or 1 week of E2 treatment), the animals were subjected to a transient (1 hour) middle cerebral artery occlusion followed by reperfusion for 24 hours to mimic one of the main causes of neuron loss. Then, the animals were euthanized for determination of brain lesion volume and subsequent terminal deoxynucleotidyl transferase dUTP nick end labeling (TUNEL) staining to evaluate apoptosis in and around brain lesions. TUNEL staining was conducted on the same tissue used for assessment of lesion volume in Example 2. Brain slices were post-fixed in 4% formalin for later sectioning for subsequent staining for TUNEL positive neurons. DNA fragmentation was detected by a TUNEL method using a Dead END fluorescent kit (Promega, Madison, Wis.) according to the manufacturer's instruction. […] Within these boundaries, optical dissectors were systematically randomly sampled and the number of positive cells, together with DAPI labeled nuclear counter-stain in each optical section is counted. […] The data were expressed as the percentage of DAPI nuclear counter-stained cells.

Consider `C[C@]12CC[C@@H]3c4ccc(O)cc4CC[C@H]3[C@@H]1CC[C@@H]2O` [17β-Estradiol], for which the “Lesion Volume Value” in assay [1] worked out at 147.41. In addition, in assay [2], the “TUNEL Staining Value (TUNEL-positive cells normalized to the total number of cells by DAPI stain)” value is recorded as 37.69 percentage of DAPI nuclear counter-stained cells.

Values taken from patent publication US9320759B2, “Methods and compositions for treating, reducing or preventing deterioration of the visual system of animals” (Nestec S.A, priority 2011, dated 2016).
